Reference: US9844535B2, “SHP2 inhibitors and methods of treating autoimmune and/or glomerulonephritis-associated diseases using SHP2 inhibitors” (Indiana University Research and Technology Corporation, priority 2013, dated 2017)

Tests used:
[1] = tested on: IFNγ, TNFα, IL17, IL6; test: Cytokine ELISA; format: in vivo, mouse; conditions: SLE-prone mice
Description: (§1) ELISA assays were used to detect for the presence of various cytokines in mouse serum isolated from vehicle or drug-treated animals or from medium supernatant isolated from tissue cell cultures as described above. In addition, ELISA was also used to detect total IgG and dsDNA IgG from mouse serum and for the assay to detect urine albumin and creatinine levels. ELISA detection kits for mouse cytokines IL-6 and TNFα were purchased from eBioscience, mouse cytokines IL-17A, IFNγ, and human IFNγ were purchased from Biolegend, kits for the albumin and creatinine were purchased from Exocell, and kits for the serum IgG and anti-dsDNA IgG were purchased from Alpha Diagnostic (San Antonio, Tex.). ELISAs were all performed according to the manufacturer's instructions.
Cytokine analyses: In brief, capture antibodies for each cytokine were precoated on 96-well plates overnight at 4° C., then 100 μl of 5× diluted serum or 300× diluted supernatant medium was loaded on the precoated wells in duplicate and left overnight at 4° C. (with the exception of the human IFNγ assay isolated from supernatant medium, where the dilution used was 1:30). As per the protocol instructions, enzyme-antibody conjugate, TMB substrate and stopping buffer were added sequentially. The colorimetric analysis, as measured by optical density (OD) within each well, was determined using a microplate reader set at a wavelength of 450 nm. The cytokine concentrations were calculated and measured against a standard curve for each cytokine.
An ELISA was conducted to detect concentrations of IFNγ, TNFα, IL17, and IL6 in T cells derived from spleen.

[2] = tested on: MRL/lpr mouse spleen immune cells; test: Cellular immune response in spleen (histology, flow cytometry); format: in vivo
Description: Harvested organs (kidney, spleen, and heart) to be used to assess morphometry and histochemistry were flushed with PBS, perfusion fixed in Bouin's reagent, and paraffin embedded. Sections (5 μm) were stained with Hematoxylin and Eosin (H&E), Periodic acid—Schiff stain (PAS), Masson-Trichrome, or reticulin staining at the Harvard Medical School Rodent Histopathology Core and scored using an unbiased approach, in which histology scores of 1 (normal) to 5 (most severe pathology) were designated to tissue sections which were only numerically labeled and in no particular order (by Dr. Roderick Bronson, director of the Rodent Histopathology Core, Harvard Medical School). Numerical sections were later decoded, marked for their designated score, and statistically analyzed. Images of the tissue sections were obtained and quantified on a Keyence BZ-9000 Microscope (Keyence Corporation, Itasca, Ill.).
Spleens were cut into 2 to 3 pieces each and homogenized on a 70 μm nylon mesh in 5 ml of HBSS buffer. The cells were filtered through a 70 μm nylon mesh to a new 50 ml tube and centrifuged at 2000 rpm for 5 minutes at room temperature. […]
To identify immune cell subsets, isolated cells from tissues were immunostained with mouse antibodies targeted against CD3E (145-2C11, BioLegend, San Diego, Calif.), CD4 (GK1.5, BioLegend), CD8 (53-6.7, eBioscience, San Diego, Calif.), CD45 (30-F11, eBioscience), CD 19 (6125, BioLegend), CD11b (M1170, BioLegend), TCRαβ (H57-597, BioLegend), CD44 (IM7, BioLegend), B220 (RA3-6B2, B.D. […], BD Biosciences, San Jose Calif.), CD138 (281-2, BioLegend), CD38 (CD28.2, BioLegend), Gr-1 (RB6.805, eBioscience), CD62L (DREG-56, BioLegend), and CD25 (PC61, BioLegend) for 30 minutes at 4° C. Samples were acquired on a LSR II flow cytometer (BD Biosciences) and the percentage of each sub-population of cells (B, T, monocytes, macrophage and neutrophils) was assessed by FlowJo [version 7.2.2 (Tree Star)]. Total cell numbers were counted using a hemocytometer. Absolute cell numbers for each sub-population were calculated based on the percentage of each population. […]

[3] = tested on: serum IgG and anti dsDNA IgG; test: Serum IgG and anti-dsDNA IgG ELISA; format: in vivo, mouse; conditions: SLE mice serum
Description: as §1
Serum IgG and anti-dsDNA IgG: 100 μl of 1:50000× diluted serum for IgG and 100 μl of 1:20000× diluted serum for dsDNA IgG were used and loaded onto a precoated 96-well plate in duplicate for 1 hour at room temperature. […] The OD of the wells was determined using a microplate reader set at a wavelength of 450 nm.
In this Example, the effect of the SHP2 inhibitor, L97M74, on the onset of SLE disease progression was evaluated by measuring the levels of auto antibodies in SLE inhibitor-treated versus vehicle-treated mice through detection anti-histone antibodies and anti-IgG by ELISA.

[4] = tested on: SLE-prone mice hearts; test: Echocardiography; format: in vivo, mouse; conditions: vs vehicle-treated SLE mice
Protocol: Transthoracic echocardiography was conducted on non-anesthetized animals as described previously in Marin et al., J Clin Invest. 2011; 121:1026-1043, with a 13-MHz probe (Vivid 7, GE Medical Systems, Boston, Mass.) or VisualSonics Vevo 770 high-frequency ultrasound rodent imaging system (VisualSonics, Toronto, Ontario). GE Medical Systems or VisualSonics Vevo 770 software was used for data acquisition and subsequent analysis. Hearts were imaged in the 2-dimensional parasternal short-axis view, and an M-mode echocardiogram of the midventricular region was recorded at the level of the papillary muscles. Calculations of cardiac anatomic and functional parameters were carried out as described in Marin et al., J Clin Invest. 2011; 121:1026-1043.

Cn1c(-c2cccc(NC(=O)C(=O)Nc3ccc(-c4ccsc4)cc3)c2)c(I)c2cc(C(=O)O)c(O)cc21 [11a-1]
IFNγ [1]: significant decreases
IL6 [1]: No effects
IL17 [1]: No effects
TNFα [1]: No effects
overall splenic T cell counts ([2]; MRL/lpr mice): overall splenic T cell counts were reduced
splenic CD4, CD8 and double-negative T cells ([2]; MRL/lpr mice): significant reduction in CD4, CD8, and double-negative T cells
germinal center formation in the spleen ([2]; MRL/lpr mice vs vehicle): greatly reduced
levels of IgG [3]: not reduced
levels of double-stranded DNA (anti dsDNA IgG) [3]: not reduced
cardiac functional parameters [4]: significantly improved functional parameters
left ventricular chamber dimension [4]: decreased chamber
posterior wall thickness [4]: increased posterior wall measurements
